IC50 data for 18 molecules are collected here from US9181277B2, “Aminoquinazoline derivatives and their salts and methods of use” (SUNSHINE LAKE PHARMA CO., LTD., priority 2011, dated 2015).

The target of the assay is EGFR Kinase (Homo sapiens, UniProt P00533). Kind of assay: EGFR inhibitory activity test (HTRF kinEASE STK S1 kinase assay). The format is biochemical. The settings on record: replicate wells, read-out: IC50(nM), Inhibitory Activity of Compounds on EGFR Kinase. Here is the method: In a pilot study, the compounds disclosed herein were screened for their EGFR inhibitory activity. The Cisbio Research Product HTRF kinEASE STK S1 kinase assay/inhibitor screening Kit, can detect the generation of the phosphorylated substrate. Kinase, biotinylated substrate and ATP were first added into buffer solution, and the phosphorylated biotinylated substrates were formed by enzyme reaction. Then, to the above solution was added europium-labeled anti-phospho-site specific antibodies and XL665-labeled avidin. The Specific combinations of antibody with antigen, and biotin with avidin, bring the europium and XL665 closer together and resonance energy transferred. The signals at 620 nm and 665 nm were detected, and the activity of the kinase was evaluated by the ratio of the two signals value.
Sequence of EGFR Kinase (P00533 25-1210): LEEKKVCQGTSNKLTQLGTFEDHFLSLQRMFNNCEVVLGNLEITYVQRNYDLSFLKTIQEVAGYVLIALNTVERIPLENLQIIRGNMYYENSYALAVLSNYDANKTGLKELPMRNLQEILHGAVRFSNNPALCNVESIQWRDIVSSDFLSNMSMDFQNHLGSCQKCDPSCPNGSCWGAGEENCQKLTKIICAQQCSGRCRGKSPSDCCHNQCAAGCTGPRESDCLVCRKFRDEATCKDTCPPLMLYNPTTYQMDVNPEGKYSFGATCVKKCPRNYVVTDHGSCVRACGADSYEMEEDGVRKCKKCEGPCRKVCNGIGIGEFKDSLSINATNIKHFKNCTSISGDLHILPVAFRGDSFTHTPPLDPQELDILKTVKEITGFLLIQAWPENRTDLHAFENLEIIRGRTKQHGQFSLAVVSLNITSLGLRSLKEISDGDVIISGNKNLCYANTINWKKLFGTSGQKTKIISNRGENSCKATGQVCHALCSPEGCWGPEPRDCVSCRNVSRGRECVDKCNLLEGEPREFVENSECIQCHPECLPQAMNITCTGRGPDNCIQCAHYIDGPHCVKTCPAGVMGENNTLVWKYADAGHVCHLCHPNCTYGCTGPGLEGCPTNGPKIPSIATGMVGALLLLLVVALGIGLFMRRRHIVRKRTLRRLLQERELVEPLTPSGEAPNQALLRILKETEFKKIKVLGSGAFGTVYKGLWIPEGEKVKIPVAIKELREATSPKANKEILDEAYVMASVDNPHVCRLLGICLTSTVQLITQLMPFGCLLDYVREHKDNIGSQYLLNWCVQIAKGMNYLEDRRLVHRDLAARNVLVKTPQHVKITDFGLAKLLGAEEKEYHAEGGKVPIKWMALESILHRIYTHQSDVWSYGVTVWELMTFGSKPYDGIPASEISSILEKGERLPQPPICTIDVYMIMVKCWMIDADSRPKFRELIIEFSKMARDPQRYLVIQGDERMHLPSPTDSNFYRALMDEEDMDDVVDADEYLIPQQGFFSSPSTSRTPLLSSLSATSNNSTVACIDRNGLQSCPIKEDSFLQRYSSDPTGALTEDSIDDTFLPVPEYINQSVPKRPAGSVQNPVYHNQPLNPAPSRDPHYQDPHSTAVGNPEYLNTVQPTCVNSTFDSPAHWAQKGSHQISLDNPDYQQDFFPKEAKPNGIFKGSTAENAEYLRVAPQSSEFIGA
A general note: TR-FRET usually uses a lanthanide donor and a delayed reading to cut background.

Molecules are shown by their SMILES.

Usually IC50 stands for the concentration at which inhibition is half-maximal. As for `COc1cc2ncnc(Nc3ccc(F)c(Cl)c3)c2cc1OCCCN1CCc2noc(C)c2C1` [Example 24, N-(3-chloro-4-fluorophenyl)-7-methoxy-6-(3-(3-methyl-6,7-dihydroisoxazolo[4,3-c]pyridin-5(4H)-yl)propoxy)quinazolin-4-amine], the IC50 fell in the range of 0.001 to 0.1 nM.
With `COc1cc2ncnc(Nc3ccc(F)c(Cl)c3)c2cc1OCCCN1CCc2c(c(C)nn2C)C1` [Example 38, N-(3-chloro-4-fluorophenyl)-6-(3-(1,3-dimethyl-6,7-dihydro-1H-pyrazolo[4,3-c]pyridin-5(4H)-yl)propoxy)-7-methoxyquinazolin-4-amine] the figure was 0.101 to 1 nM; with `CCN1CC2CCCN(CCCOc3cc4c(Nc5ccc(F)c(Cl)c5)ncnc4cc3OC)C2C1` (stereo not drawn) [Example 29, N-(3-chloro-4-fluorophenyl)-6-(3-(6-ethyloctahydro-1H-pyrrolo[3,4-b]pyridin-1-yl)propoxy)-7-methoxyquinazolin-4-amine], 0.001 to 0.1 nM.
With `C#Cc1cccc(Nc2ncnc3cc(OC)c(OCCCN4CC5OCCOC5C4)cc23)c1` (stereo not drawn) [Example 8, N-(3-ethynylphenyl)-7-methoxy-6-(3-(tetrahydro-2H-[1,4]dioxino[2,3-c]pyrrol-6(3H)-yl)propoxy)quinazolin-4-amine] the figure was 0.001 to 0.1 nM.
As for `COc1cc2ncnc(Nc3ccc(F)c(Cl)c3)c2cc1OCCCN1CC2C(C1)C2N(C)C` (stereo not drawn) [Example 32, N-(3-chloro-4-fluorophenyl)-6-(3-(6-(dimethylamino)-3-azabicyclo[3.1.0]hexan-3-yl)propoxy)-7-methoxyquinazolin-4-amine], the figure is 1 to 10 nM; as for `COc1cc2ncnc(Nc3ccc(F)cc3)c2cc1OCCCN1CCC2COCC2C1` (stereo not drawn) [Example 43, N-(4-fluorophenyl)-6-(3-(hexahydrofuro[3,4-c]pyridin-5(3H)-yl)propoxy)-7-methoxyquinazolin-4-amine], 0.101 to 1 nM; as for `COc1cc2ncnc(Nc3ccc(F)cc3)c2cc1OCCCN1CCn2cnnc2C1` [Example 42, 6-(3-(5,6-dihydro-[1,2,4]triazolo[4,3-a]pyrazin-7(8H)-yl)propoxy)-N-(4-fluorophenyl)-7-methoxyquinazolin-4-amine], 1 to 10 nM.
Take `COc1cc2ncnc(Nc3ccc(F)c(Cl)c3)c2cc1OCCCN1CCC2OCCOC2C1` (stereo not drawn) [Example 36, N-(3-chloro-4-fluorophenyl)-6-(3-(hexahydro-[1,4]dioxino[2,3-c]pyridin-6(7H)-yl)propoxy)-7-methoxyquinazolin-4-amine]: the 50% inhibitory concentration (IC50) lay in the range of 1 to 10 nM.
As for `COc1cc2ncnc(Nc3ccc(F)c(Cl)c3)c2cc1OCCCN1CCC2CCNCC2C1` (stereo not drawn) [Example 33, N-(3-chloro-4-fluorophenyl)-7-methoxy-6-(3-(octahydro-2,7-naphthyridin-2(1H)-yl)propoxy) quinazolin-4-amine], the figure is 0.001 to 0.1 nM; as for `COc1cc2ncnc(Nc3ccc(F)c(Cl)c3)c2cc1OCCCN1CC2CCCN(C)C2C1` (stereo not drawn) [Example 28, N-(3-chloro-4-fluorophenyl)-7-methoxy-6-(3-(1-methylhexahydro-1H-pyrrolo[3,4-b]pyridin-6(2H)-yl)propoxy)quinazolin-4-amine], 0.001 to 0.1 nM; as for `CCc1nnc2n1CCN(CCCOc1cc3c(Nc4ccc(F)c(Cl)c4)ncnc3cc1OC)C2` [Example 2, N-(3-chloro-4-fluorophenyl)-6-(3-(3-ethyl-5,6-dihydro-[1,2,4]triazolo[4,3-a]pyrazin-7(8H)-yl)propoxy)-7-methoxyquinazolin-4-amine], over 10 nM.
As for `C#Cc1cc(Nc2ncnc3cc(OC)c(OCCCN4CCn5cnnc5C4)cc23)ccc1F` [Example 45, 6-(3-(5,6-dihydro-[1,2,4]triazolo[4,3-a]pyrazin-7(8H)-yl)propoxy)-N-(3-ethynyl-4-fluorophenyl)-7-m ethoxyquinazolin-4-amine], the IC50 was in the range of 0.101 to 1 nM.
`COc1cc2ncnc(Nc3ccc(F)c(Cl)c3)c2cc1OCCCN1CCCC2CN(C)CC21` (stereo not drawn) [Example 27, N-(3-chloro-4-fluorophenyl)-7-methoxy-6-(3-(6-methyloctahydro-1H-pyrrolo[3,4-b]pyridin-1-yl)propoxy)quinazolin-4-amine]: the IC50 was 0.001 to 0.1 nM.
With `COc1cc2ncnc(Nc3ccc(F)c(Cl)c3)c2cc1OCCCN1CCn2c(nnc2C(F)(F)F)C1` [Example 1, N-(3-chloro-4-fluorophenyl)-7-methoxy-6-(3-(3-(trifluoromethyl)-5,6-dihydro-[1,2,4]triazolo[4,3-a]pyrazin-7(8H)-yl)propoxy)quinazolin-4-amine] the figure was 1 to 10 nM; with `COc1cc2ncnc(Nc3ccc(F)c(Cl)c3)c2cc1OCCCN1CC2OCCN(C)C2C1` (stereo not drawn) [Example 15, N-(3-chloro-4-fluorophenyl)-7-methoxy-6-(3-(4-methylhexahydropyrrolo[3,4-b][1,4]oxazin-6(2H)-yl)propoxy)quinazolin-4-amine], 0.101 to 1 nM; with `COc1cc2ncnc(Nc3ccc(F)c(Cl)c3)c2cc1OCCCN1CCC2NCCC2C1` (stereo not drawn) [Example 19, N-(3-chloro-4-fluorophenyl)-6-(3-(hexahydro-1H-pyrrolo[3,2-c]pyridin-5(6H)-yl)propoxy)-7-methoxyquinazolin-4-amine], 0.001 to 0.1 nM.
`COc1cc2ncnc(Nc3ccc(F)c(Cl)c3)c2cc1OCCCN1CC2OCCN(Cc3ccccc3)C2C1` (stereo not drawn) [Example 16, 6-(3-(4-benzylhexahydropyrrolo[3,4-b][1,4]oxazin-6(2H)-yl)propoxy)-N-(3-chloro-4-fluorophenyl)-7-methoxyquinazolin-4-amine]: the IC50 is 1 to 10 nM.
As for `COc1cc2ncnc(Nc3ccc(F)c(Cl)c3)c2cc1OCCCN1C[C@@H]2C[C@]2(N(C)C)C1` [Example 5], the figure is 0.101 to 1 nM.
